Reference: publication PMC3448795 (Biochemistry, 2012)
Read-outs that look alike come from different tables or passages of the source. Peptide text beside a SMILES is read from it.

Columns and labels:
human S100B [1] = target: T1, human S100B (Homo sapiens, UniProt P04271); assay: Isothermal titration calorimetry; format: binding
T1 sequence (P04271 2-92 limits assumed): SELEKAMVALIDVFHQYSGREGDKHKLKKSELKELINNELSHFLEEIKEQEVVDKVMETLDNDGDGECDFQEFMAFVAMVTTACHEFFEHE

human S100B [2] = target: T1, human S100B; assay: NMR 1H-15N HSQC titration with LineShapeKin line shape analysis; format: binding; settings: for Kon (Table 3) / Kon (Table 4) / Kon (Table 2): low salt; for Kon (Table 2): Kd from ITC
[3] = calculated from Kd and Koff of Table 3
[4] = calculated from Kd and Koff of Table 4
[5] = calculated from Kd and Koff, 35°C

Row | Kd (human S100B [1]) | Kon (Table 3) (human S100B [2]; [3]) | Kon, first peptide binding event (human S100B [2]; bounds from simulated Koff and ITC Kd1) | Kon, second peptide binding event (human S100B [2]; bounds from simulated Koff and ITC Kd2) | Kon (Table 4) (human S100B [2]; [4]) | Kon (Table 2) (human S100B [2]; [5]) | kon (human S100B [2]; read-out: Kon (text, Table 2 analysis)) | ΔCp, exp, high salt (human S100B [1]; slope of ΔHcal versus temperature, ITC, buffer plus 120 mM NaCl) | Kd (human S100B [2]; Kd, App (Table 4), high salt, LineShapeKin, NMR only, 35°C, from 2D matrix) | Kon (Table 3), high salt (human S100B [2]; calculated from Kd and Koff of Table 3, high salt) | Kon (Table 4), high salt (human S100B [2]; calculated from Kd and Koff of Table 4, high salt) | Kon (Table 2), high salt (human S100B [2]; calculated from Kd and Koff, 35°C, high salt) | koff (human S100B [2]; read-out: Koff (Table 3), high salt, LineShapeKin, NMR only, 35°C, high salt) | koff (human S100B [2]; read-out: Koff (Table 4), high salt, LineShapeKin, NMR only, 35°C, high salt, from 2D matrix) | kon (human S100B [2]; read-out: Kon (text, Table 3 analysis)) | Compound
1 | 0.07 ± 0.03 µM | 3 ± 1 1×10^7 M^-1 s^-1 |  |  |  |  |  |  |  |  |  |  |  |  |  | CC[C@H](C)[C@H](NC(=O)[C@H](CCCCN)NC(=O)[C@H](CC(C)C)NC(=O)[C@H](CC(C)C)NC(=O)[C@@H]1CCCN1C(=O)[C@H](CC(C)C)NC(=O)[C@H](CCCCN)NC(=O)[C@@H]1CCCN1C(=O)[C@H](CCCNC(=N)N)NC(=O)[C@@H](NC(=O)[C@H](CCC(N)=O)NC(=O)[C@H](CC(N)=O)NC(C)=O)C(C)C)C(=O)N[C@@H](CC(C)C)C(=O)N[C@@H](Cc1c[nH]cn1)C(=O)N[C@@H](C)C(=O)N[C@@H](C)C(=O)NCC(=O)N[C@@H](C)C(=O)N[C@@H](CCC(N)=O)C(=O)N[C@@H](Cc1ccc(O)cc1)C(N)=O [HDM4] (Ac-NQVRPKLPLLKILHAAGAQY-NH2)
2 |  |  | 13-63 1×10^7 M^-1 s^-1 | 1-10 1×10^7 M^-1 s^-1 |  |  |  |  |  |  |  |  |  |  |  | CC(=O)N[C@@H](CCCCN)C(=O)N[C@@H](CCCNC(=N)N)C(=O)N[C@@H](CC(C)C)C(=O)N[C@@H](CCCNC(=N)N)C(=O)N[C@@H](CCCNC(=N)N)C(=O)N[C@@H](CO)C(=O)N[C@@H](C)C(=O)N[C@@H](Cc1c[nH]cn1)C(=O)N[C@@H](C)C(=O)N[C@@H](CCCNC(=N)N)C(=O)N[C@@H](CCCCN)C(=O)N[C@@H](CCC(=O)O)C(=O)N[C@H](C(=O)N[C@@H](CCC(=O)O)C(=O)N[C@@H](Cc1ccccc1)C(=O)N[C@@H](CC(C)C)C(=O)N[C@@H](CCCNC(=N)N)C(=O)N[C@@H](CC(C)C)C(=O)N[C@@H](CCCCN)C(=O)N[C@@H](CCCNC(=N)N)C(=O)N[C@H](C(=O)N[C@@H](CCCNC(=N)N)C(=O)N[C@@H](CC(C)C)C(=O)NCC(=O)N[C@@H](CC(C)C)C(=O)N[C@@H](CCC(=O)O)C(=O)N[C@@H](Cc1ccc(O)cc1)C(N)=O)[C@@H](C)O)[C@@H](C)O [NDR] (Ac-KRLRRSAHARKETEFLRLKRTRLGLEY-NH2)
3 | 0.5 ± 0.2 µM | 160 ± 70 1×10^7 M^-1 s^-1 |  |  | 100 ± 40 1×10^7 M^-1 s^-1 | 30 ± 11 1×10^7 M^-1 s^-1 | 2.8e+08 M⁻¹ s⁻¹ |  |  |  |  |  |  |  |  | CC(=O)N[C@@H](CCC(=O)O)C(=O)N[C@H](C(=O)N[C@@H](CC(C)C)C(=O)N[C@H](C(=O)N[C@@H](CCCNC(=N)N)C(=O)N1CCC[C@H]1C(=O)N[C@@H](CCCCN)C(=O)N1CCC[C@H]1C(=O)N[C@@H](CC(C)C)C(=O)N[C@@H](CC(C)C)C(=O)N[C@@H](CC(C)C)C(=O)N[C@@H](CCCCN)C(=O)N[C@@H](CC(C)C)C(=O)N[C@@H](CC(C)C)C(=O)N[C@@H](CCCCN)C(=O)N[C@@H](CO)C(=O)N[C@H](C(=O)NCC(=O)N[C@@H](C)C(=O)N[C@@H](Cc1ccc(O)cc1)C(N)=O)C(C)C)C(C)C)[C@@H](C)O [HDM2] (Ac-ETLVRPKPLLLKLLKSVGAY-NH2)
4 | 2 ± 1 µM | 80 ± 30 1×10^7 M^-1 s^-1 |  |  | 100 ± 40 1×10^7 M^-1 s^-1 | 40 ± 16 1×10^7 M^-1 s^-1 |  | -1.2 ± 0.3 kJ·mol^-1 K^-1 | 10 ± 2 µM | 7.5 ± 1.5 1×10^7 M^-1 s^-1 | 10 ± 2 1×10^7 M^-1 s^-1 | 3 ± 1 1×10^7 M^-1 s^-1 | 750 ± 150 s⁻¹ | 1000 ± 200 s⁻¹ | 8e+08 M⁻¹ s⁻¹ | CSCC[C@H](NC(=O)[C@H](CC(C)C)NC(=O)[C@H](CCCCN)NC(=O)[C@H](CCCCN)NC(=O)[C@H](Cc1c[nH]cn1)NC(=O)[C@H](CCCNC(=N)N)NC(=O)[C@H](CO)NC(=O)[C@@H](NC(=O)[C@H](CO)NC(=O)[C@H](CCC(N)=O)NC(=O)CNC(=O)[C@H](CCCCN)NC(=O)[C@H](CCCCN)NC(=O)[C@H](CO)NC(=O)[C@H](CCCCN)NC(=O)[C@H](CC(C)C)NC(=O)[C@H](Cc1c[nH]cn1)NC(=O)[C@H](CO)NC(=O)[C@H](Cc1ccc(O)cc1)NC(C)=O)[C@@H](C)O)C(=O)N[C@@H](Cc1ccccc1)C(=O)N[C@@H](CCCCN)C(=O)N[C@H](C(=O)N[C@@H](CCC(=O)O)C(N)=O)[C@@H](C)O [p53]
